Results taken from patent US10577322B2, “5-methoxytryptophan and its derivatives and uses thereof” (National Health Research Institutes, priority 2015, dated 2020).

Experiments:
[1] = tested on: caspase-3; assay: Caspase-3 activity in splenocytes (fluorogenic substrate); type: in vivo, mice; conditions: 5-MTP 100 mg/kg, 16 h
Protocol: Caspase-3 activity was determined by the cleavage of the fluorometric substrate z-DEVD-AMC (Upstate Biotechnology) as previously described (Kuo, C. C., Liang, C. M., Lai, C. Y. & Liang, S. M. Involvement of heat shock protein(Hsp)90 beta but not Hsp90 alpha in antiapoptotic effect of CpG-B oligodeoxynucleotide. J Immunol 178, 6100-6108 (2007)).
In addition, caspase-3 activity in splenocytes of mice treated with saline, LPS or LPS plus 5-MTP (100 mg/kg) for 16 h was measured by fluorogenic substrate as described above. The results are shown in FIG. 9B, in which the error bare denotes mean±SD (n=6 mice/group).

[2] = tested on: p300 HAT; assay: p300 HAT activity in peritoneal macrophages; type: cell-based, mouse; conditions: LPS, 5-MTP 50 μM
Protocol: p300 HAT activity in peritoneal macrophages treated with LPS in the presence or absence of 5-MTP (50 μM) for the indicated time was measured with an p300 HAT activity assay kit.

[3] = tested on: RAW264.7 cells; assay: Cell viability by MTT assay; type: cell-based, mouse; conditions: 24 h
Protocol: Furthermore, RAW264.7 cells were treated with different concentrations of 5-MTP or 5-MTPE for 24 h. Cell viability was determined by MTT assay. In another experiment, after pretreating RAW264.7 cells with different concentrations of 5-MTP or 5-MTPE for 30 min, cells were stimulated with LPS for 24 h. IL-6 level in culture supernatants was measured by ELISA.

| Compound | LPS-induced caspase-3 cleavage in spleen cells [1] | p300 HAT activation [2] | cell viability (MTT) [3] |
| --- | --- | --- | --- |
| COc1ccc2[nH]cc(C[C@H](N)C(=O)O)c2c1 [5-MTP, 5-methoxytryptophan] | prevented | significantly blocked p300 HAT activation up to 24 h |  |
| COC(=O)C(N)Cc1c[nH]c2ccc(OC)cc12 (stereo not drawn) [5-MTPE, ester-5-MTP] |  |  | not cell viability |
